Experimental data: ChEMBL document CHEMBL1142732, “In-depth study of tripeptide-based alpha-ketoheterocycles as inhibitors of thrombin. Effective utilization of the S1' subsite and its implications to structure-based drug design” (J Med Chem, 2005); call rule not given here

What was measured:
Serine protease 1 [1] = target: T1, Serine protease 1 (Bos taurus, UniProt P00760); experiment: Binding affinity against bovine trypsin; NA=Not active at 1 uM
T1 sequence (P00760 whole entry): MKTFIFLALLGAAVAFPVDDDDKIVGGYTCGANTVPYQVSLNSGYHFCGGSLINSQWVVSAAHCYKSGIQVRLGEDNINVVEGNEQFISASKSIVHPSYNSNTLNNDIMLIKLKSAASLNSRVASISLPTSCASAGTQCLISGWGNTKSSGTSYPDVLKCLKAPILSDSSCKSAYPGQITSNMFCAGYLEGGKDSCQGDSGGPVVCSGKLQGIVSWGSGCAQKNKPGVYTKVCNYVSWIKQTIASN

Prothrombin [2] = target: T2, Prothrombin (Homo sapiens, UniProt P00734); experiment: Binding affinity determined against human alpha thrombin
Homo sapiens [3] = organism: Homo sapiens; experiment: Inhibitory concentration against gel filtered platelet aggregation induced by alpha thrombin; format: functional
Prothrombin [4] = target: T2, Prothrombin; experiment: Inhibitory concentration against human alpha thrombin
Cavia porcellus [5] = experiment: Percent change in blood pressure in guinea pig at 3 mg/kg dose
Serine protease 1 [6] = target: T1, Serine protease 1; experiment: Binding affinity against bovine trypsin
Cavia porcellus [7] = experiment: Percent change in blood pressure in guinea pig at 10 mg/kg dose
Serine protease 1 [8] = target: T1, Serine protease 1; experiment: Inhibitory concentration against bovine trypsin; NT=Not determined
Prothrombin [9] = target: T2, Prothrombin; experiment: Inhibition constant against human alpha thrombin
Serine protease 1 [10] = target: T1, Serine protease 1; experiment: Inhibitory concentration against bovine trypsin; Not determined
Serine protease 1 [11] = target: T1, Serine protease 1; experiment: Inhibitory concentration against bovine trypsin
Prothrombin [12] = target: T2, Prothrombin; experiment: Binding affinity against human alpha thrombin; […]
[13] = Oral bioavailability was determined in conscious rat after 10 mg/kg dosage through gavage; format: ADME, organism-based; conditions: in vivo
Homo sapiens [14] = organism: Homo sapiens; experiment: Inhibitory concentration of the compound was determined against gel filtered platelet aggregation induced by alpha thrombin; format: functional
[15] = Half life was determined in rat after an intravenous dose of 1 mg/kg; format: ADME, organism-based; design: dose 1 mg/kg, route intravenous; conditions: in vivo
[16] = Oral half life was determined in conscious rat after 10 mg/kg dosage through gavage; format: ADME, organism-based; design: dose 10 mg/kg; conditions: in vivo
Oryctolagus cuniculus = experiment: In vivo effective intravenous dose for that was determined in Rabbit deep vein thrombosis model
Canis familiaris = experiment: In vivo effective intravenous dose for that reduces thrombus weight accumulation on a silk fiber by 50% was determined in Dog arteriovenous shunt model; format: functional; conditions: Canis lupus familiaris
Cavia porcellus [17] = organism: Cavia porcellus; experiment: animal or person; conditions: Blood, iv
Description: In vivo effective intravenous dose for eliciting a 25% decrease in blood pressure in anesthetized Guinea pig

Prothrombin [18] = target: T2, Prothrombin; experiment: Inhibitory concentration against human alpha thrombin; NA=Not active at 1 uM
Prothrombin [19] = target: T2, Prothrombin; experiment: Inhibitory concentration against human alpha thrombin; NT=Not active at 300 uM
Serine protease 1 [20] = target: T1, Serine protease 1; experiment: Binding affinity against bovine trypsin; NT=Not active at 100 uM
Prothrombin [21] = target: T2, Prothrombin; experiment: Binding affinity against human alpha thrombin; SB = slow-binding kinetics
Cavia porcellus [22] = experiment: Percent change in blood pressure in guinea pig at 1 mg/kg dose
Prothrombin [23] = target: T2, Prothrombin; experiment: Inhibitory concentration against human alpha thrombin; NA = Not active at 1 uM
Serine protease 1 [24] = target: T1, Serine protease 1; experiment: Inhibitory concentration against bovine trypsin; ND=Not determined
Cavia porcellus [25] = experiment: Percent change in blood pressure in guinea pig at 20 mg/kg dose
Prothrombin [26] = target: T2, Prothrombin; experiment: Binding affinity against human alpha thrombin; SB = Slow-binding
Cavia porcellus [27] = experiment: Cardiovascular safety ratio ratiod (ED-25:ED50) estimation, which is based on a comparison of the hypotensive response in anesthetized guinea pigs to the anticoagulant / antithrombotic response in dogs; format: functional
Cavia porcellus [28] = experiment: Cardiovascular safety ratio ratiod (ED-25:ED50) estimation, which is based on a comparison of the hypotensive response in anesthetized guinea pigs to the anticoagulant / antithrombotic response in rabbit; format: functional

Row | SMILES | Ki (Prothrombin [2]) [nM] | IC50 (Homo sapiens [3]) [nM] | IC50 (Prothrombin [4]) [nM] | Ki (Serine protease 1 [6]) [nM] | Delta BP (Cavia porcellus [7]) [%] | also measured
1 | CCCC[C@H](NC(=O)[C@@H]1CCCN1C(=O)[C@@H](Cc1ccccc1)NC)C(=O)c1nc2ccccc2s1 | – | – | – | – | – | Ki (Serine protease 1 [1]): Not Active
2 | CN[C@H](Cc1ccccc1)C(=O)N1CCC[C@H]1C(=O)NC(C(=O)c1nc2ccccc2s1)C1CCC(N)CC1 (stereo not given in full) | 110 | 76 | 1900 | 330 | – | Delta BP (Cavia porcellus [5]): -25%
3 | CN[C@H](Cc1ccccc1)C(=O)N1CCC[C@H]1C(=O)NC(CCCN=C(N)N)C(=O)c1nc2c(s1)CCCC2 (stereo not given in full) | 3.4 | 22 | 80 | 4.4 | -70 | –
4 | CN[C@H](Cc1ccccc1)C(=O)N1CCC[C@H]1C(=O)N[C@@H](CCCN=C(N)N)Cc1nc2ccccc2s1 | – | – | – | – | – | IC50 (Serine protease 1 [8]): 32000 nM
5 | CN[C@H](Cc1ccccc1)C(=O)N[C@H](C(=O)NC(CCCN=C(N)N)C(=O)c1nc2ccccc2s1)C(C)C (stereo not given in full) | 21 | 180 | 440 | 1.5 | – | Delta BP (Cavia porcellus [5]): -47%; Ki (Prothrombin [9]): 21 nM
6 | CN[C@H](Cc1ccccc1)C(=O)N1CCC[C@H]1C(=O)N[C@H](CCCN=C(N)N)Cc1nc2ccccc2s1 | – | – | – | – | – | IC50 (Serine protease 1 [10]): 30000 nM
7 | N=C(N)NCCCC(NC(=O)[C@@H]1CCCN1C(=O)N[C@H](C=O)Cc1ccccc1)C(=O)c1nc2ccccc2s1 (stereo not given in full) | – | – | 17000 | – | – | IC50 (Serine protease 1 [11]): 5.8 nM
8 | N=C(N)NCCC[C@H](NC(=O)CN1CCCC[C@H](NS(=O)(=O)Cc2ccccc2)C1=O)C(=O)c1nc2ccccc2s1 | 16 | 47 | 270 | 9.4 | -39 | –
9 | CN[C@@H](C(=O)N1CCC[C@H]1C(=O)NC(CCCN=C(N)N)C(=O)c1nc2ccccc2s1)C(c1ccccc1)c1ccccc1 (stereo not given in full) | – | 43 | 4.5 | – | – | IC50 (Serine protease 1 [11]): 352 nM; Ki (Prothrombin [12]): Slow Binding; Delta BP (Cavia porcellus [5]): -54%
10 | CN[C@H](Cc1ccccc1)C(=O)N1CCC[C@H]1C(=O)NC(CCCN=C(N)N)C(=O)c1nc2ccc(C(=O)O)cc2s1 (stereo not given in full) | – | – | – | 2.7 | -32 | bioavailability [13]: 3%; IC50 (Homo sapiens [14]): 41 nM; half-life [15]: 25 min; half-life [16]: 60 min; ED50 (Oryctolagus cuniculus): 0.43 mg/kg; ED50 (Canis familiaris): 0.14 mg/kg; ED25 (Cavia porcellus [17]): 13 mg/kg
11 | CN[C@H](Cc1ccccc1)C(=O)N1CCC[C@H]1C(=O)N[C@@H](Cc1ccccc1)C(=O)c1nc2ccccc2s1 | 7100 | – | – | 12000 | – | IC50 (Prothrombin [18]): Not Active
12 | N=C(N)NCCCCC(=O)c1nc2ccccc2s1 | – | – | – | – | – | IC50 (Prothrombin [19]): Not Active; Ki (Serine protease 1 [20]): Not Active
13 | CNCCCC[C@@H](NC(=O)[C@@H]1CCCN1C(=O)[C@@H](Cc1ccccc1)NC)C(=O)c1nc2ccccc2s1 | 3500 | – | – | 1000 | – | IC50 (Prothrombin [18]): Not Active
14 | N=C(N)NCCCC(NC(=O)[C@@H]1CCCN1C(=O)CC(c1ccccc1)c1ccccc1)C(=O)c1nc2ccccc2s1 (stereo not given in full) | 1.1 | 29 | 11 | 22 | – | Delta BP (Cavia porcellus [5]): -25%; Ki (Prothrombin [9]): 3.1 nM
15 | CN[C@H](Cc1ccccc1)C(=O)N1CCC[C@H]1C(=O)NC(CCCN=C(N)N)C(=O)c1nc2ccc(C(N)=O)cc2s1 (stereo not given in full) | – | – | – | 0.3 | – | Ki (Prothrombin [12]): Slow Binding
16 | NC(N)=NCCCC(NC(=O)[C@@H]1CCCN1C(=O)[C@H](N)Cc1ccccc1)C(=O)c1nc2ccccc2s1 (stereo not given in full) | – | – | – | 0.3 | – | Ki (Prothrombin [21]): Slow Binding
17 | CNCCCC[C@H](NC(=O)[C@@H]1CCCN1C(=O)[C@@H](Cc1ccccc1)NC)C(=O)c1nc2ccccc2s1 | 3700 | 5200 | – | 1200 | – | Delta BP (Cavia porcellus [22]): -16%; IC50 (Prothrombin [23]): Not Active

Row | SMILES | Ki (Prothrombin [2]) [nM] | IC50 (Homo sapiens [3]) [nM] | IC50 (Prothrombin [4]) [nM] | Ki (Serine protease 1 [6]) [nM] | Delta BP (Cavia porcellus [7]) [%] | also measured
18 | CN[C@H](Cc1ccccc1)C(=O)N1CCC[C@H]1C(=O)N[C@@H](CCCCN=C(N)N)C(=O)c1nc2ccccc2s1 | – | – | 8400 | – | – | IC50 (Serine protease 1 [11]): 630 nM
19 | CN[C@H](Cc1ccccc1)C(=O)N1CCC[C@H]1C(=O)N[C@@H](C(=O)c1nc2ccccc2s1)C1CCC(CN)CC1 (stereo not given in full) | 1450 | – | – | 4000 | – | IC50 (Prothrombin [18]): Not Active
20 | CN[C@H](Cc1ccccc1)C(=O)N1CCC[C@H]1C(=O)N[C@@H](CCCN=C(N)N)C(=O)c1nc2ccccc2s1 | – | 32 | 29 | – | – | ED50 (Oryctolagus cuniculus): 0.25 mg/kg; ED50 (Canis familiaris): 0.46 mg/kg; Delta BP (Cavia porcellus [5]): -85%; Ki (Prothrombin [9]): 0.18 nM; ED25 (Cavia porcellus [17]): 0.9 mg/kg
21 | CN[C@H](Cc1ccccc1)C(=O)N1CCC[C@H]1C(=O)N[C@@H](CCCNC(=N)N)C(=O)c1nccn1C | – | 230 | 1500 | 5800 | -68 | –
22 | CN[C@H](Cc1ccccc1)C(=O)N1CCC[C@H]1C(=O)N[C@H](CC(=O)c1nc2ccccc2s1)[C@H]1CC[C@H](N)CC1 | – | – | > 100000 | – | – | IC50 (Serine protease 1 [24]): 58000 nM
23 | CN[C@H](Cc1ccccc1)C(=O)N1CCC[C@H]1C(=O)N[C@@H](CC(=O)c1nc2ccccc2s1)[C@H]1CC[C@H](N)CC1 | – | – | > 100000 | – | – | IC50 (Serine protease 1 [24]): 22000 nM
24 | CN[C@H](Cc1ccccc1)C(=O)N1CCC[C@H]1C(=O)NC(CCCN=C(N)N)C(=O)c1nc2ccc3ccccc3c2s1 (stereo not given in full) | 0.58 | – | 60 | 15 | -51 | –
25 | N=C(N)NCCC[C@H](NC(=O)[C@@H]1CCCN1C(=O)[C@H](CO)NS(=O)(=O)c1cccc2ccccc12)C(=O)c1nc2ccccc2s1 | 0.78 | 34 | 110 | 2.9 | – | Delta BP (Cavia porcellus [25]): -30%; Ki (Prothrombin [9]): 10 nM
26 | CN[C@H](Cc1ccccc1)C(=O)N1CCC[C@H]1C(=O)N[C@@H](Cc1ccc(C(=N)N)cc1)C(=O)c1nc2ccccc2s1 | 1400 | – | – | – | – | IC50 (Serine protease 1 [11]): 540 nM
27 | N=C(N)NCCCC(NC(=O)[C@@H]1CCCN1C(=O)C(O)C1c2ccccc2-c2ccccc21)C(=O)c1nc2ccccc2s1 (stereo not given in full) | 3.1 | – | 95 | 2 | -71 | –
28 | CN[C@H](Cc1ccccc1)C(=O)N1CCC[C@H]1C(=O)N[C@@](C)(CCCN=C(N)N)C(=O)c1nc2ccccc2s1 | – | – | 3700 | 6000 | – | Ki (Prothrombin [26]): 430 nM
29 | CN[C@H](Cc1ccccc1)C(=O)N1CCC[C@H]1C(=O)NC(CCCN=C(N)N)C(=O)c1nc2ccc(C(=O)OC)cc2s1 (stereo not given in full) | – | 39 | – | 31 | -16 | ED50 (Oryctolagus cuniculus): 0.35 mg/kg; ED50 (Canis familiaris): 0.47 mg/kg; ED25 (Cavia porcellus [17]): 13.4 mg/kg
30 | N=C(N)NCCCC(NC(=O)[C@@H]1CCCN1C(=O)[C@@H](CC1CCCCC1)NCC(=O)O)C(=O)c1nc2ccccc2s1 (stereo not given in full) | 0.36 | 16 | 29 | 22 | -47 | –
31 | CS(=O)(=O)CC[C@H](NS(=O)(=O)Cc1ccccc1)C(=O)N1CCC[C@H]1C(=O)N[C@@H](CCCNC(=N)N)C(=O)c1nc2ccccc2s1 | 1.5 | 37 | 95 | 2.7 | -64 | –
32 | CCS(=O)(=O)N[C@H](Cc1ccccc1)C(=O)N1CCC[C@H]1C(=O)NC(CCCN=C(N)N)C(=O)c1nc2ccccc2s1 (stereo not given in full) | 24 | 46 | 500 | 31 | -36 | Ki (Prothrombin [9]): 24 nM
33 | CN[C@H](Cc1ccccc1)C(=O)N1CCC[C@H]1C(=O)N[C@H](C=O)CCCNC(=N)N (stereo in doubt; 1b) | 18 | 83 | 85 | 9.1 | -21 | Ratio (Cavia porcellus [27]): 43; Ratio (Cavia porcellus [28]): 136; ED50 (Oryctolagus cuniculus): 0.21 mg/kg; ED50 (Canis familiaris): 0.66 mg/kg; Ki (Prothrombin [9]): 18 nM; ED25 (Cavia porcellus [17]): 28.6 mg/kg
